Results as given in US8119646B2, “Fungicide hydroximoyl-tetrazole derivatives” (Bayer CropScience AG, priority 2006, dated 2012).

Assay: logP determination by HPLC on a reversed-phase column (C 18), EEC Directive 79/831 Annex V.A8
Settings: not given
Procedure: Temperature: 40° C.; Mobile phases: 0.1% aqueous formic acid and acetonitrile; linear gradient from 10% acetonitrile to 90% acetonitrile.

SMILES	LogP
Cc1nnnn1C(=NOCc1nsc(N)n1)c1cccc(Cl)c1 [Compound 65, O-(5-Amino-1,2,4-thiadiazol-3-yl)methyl-(3-chlorophenyl-5-methyltetrazol-1-yl)methanone oxime]	2.17

Same assay, conditions: HPLC reversed-phase C18, 40° C., 0.1% aqueous formic acid and acetonitrile, gradient 10% to 90% acetonitrile

SMILES	LogP
Cc1nnnn1C(Cc1ccccc1)=NOCc1csc(NC(=O)C2CC2)n1 [Compound 1]	2.56
CCCC(=O)Nc1nc(CON=C(Cc2ccccc2)n2nnnc2C)cs1 [Compound 2]	2.73
Cc1nnnn1C(Cc1ccccc1)=NOCc1csc(NC(=S)NCc2ccccc2)n1 [Compound 3]	3.64
Cc1nnnn1C(Cc1ccccc1)=NOCc1csc(NC(=O)NC(C)(C)C)n1 [Compound 4]	2.91
CCCCCNC(=O)Nc1nc(CON=C(Cc2ccccc2)n2nnnc2C)cs1 [Compound 5]	3.18
Cc1nnnn1C(Cc1ccccc1)=NOCc1csc(NC(=O)Cc2ccccc2)n1 [Compound 6]	3.06
Cc1nnnn1C(Cc1ccccc1)=NOCc1csc(NC(=O)C(C)(C)C)n1 [Compound 7]	3.15
CCCCCC(=O)Nc1nc(CON=C(Cc2ccccc2)n2nnnc2C)cs1 [Compound 8]	3.3
Cc1nnnn1C(Cc1ccccc1)=NOCc1csc(NC(=O)CCCc2ccccc2)n1 [Compound 9]	3.61
Cc1nnnn1C(Cc1ccccc1)=NOCc1csc(NC(=O)C2CCCC2)n1 [Compound 11]	3.18
CCCCCC(=O)Nc1cccc(CON=C(CCc2ccccc2)n2nnnc2C)n1 [Compound 17]	3.84
COc1ccc(C(=O)Nc2cccc(CON=C(C3CCCCC3)n3nnnc3C)n2)cc1 [Compound 24]	3.99
COc1ccc(OC(=O)Nc2cccc(CON=C(C3CCCCC3)n3nnnc3C)n2)cc1 [Compound 26]	4.16
CCCCCOC(=O)Nc1cccc(CON=C(C2CCCCC2)n2nnnc2C)n1 [Compound 29]	5
Cc1nnnn1C(=NOCc1cccc(NC(=O)C(C)(C)C)n1)C1CCCCC1 [Compound 30]	3.96
CCCC(=O)Nc1cccc(CON=C(C2CCCCC2)n2nnnc2C)n1 [Compound 33]	3.55
COCCNC(=O)Nc1cccc(CON=C(C2CCCCC2)n2nnnc2C)n1 [Compound 38]	2.78

SMILES	LogP
Cc1nnnn1C(=NOCc1cccc(N)n1)C1CC1 [Compound 41]	0.87
Cc1nnnn1C(=NOCc1cccc(NC(=O)NCCc2ccc(F)cc2)n1)C1CC1 [Compound 44]	2.5
Cc1nnnn1C(=NOCc1cccc(NC(=O)NC2CC2)n1)C1CC1 [Compound 46]	1.88
Cc1nnnn1C(=NOCc1cccc(NC(=O)C2CC2)n1)C1CC1 [Compound 48]	2.11
CCCNC(=O)Nc1cccc(CON=C(C2CC2)n2nnnc2C)n1 [Compound 50]	2.09
COc1ccc(CCNC(=O)Nc2cccc(CON=C(C3CC3)n3nnnc3C)n2)cc1 [Compound 51]	2.44
Cc1ccc(C(=NOCc2nsc(N)n2)c2nnnn2C)cc1 [Compound 68]	2.07
Cc1ccc(C(=NOCc2nsc(NC(=O)Cc3ccccc3)n2)c2nnnn2C)cc1 [Compound 69]	3.22
CCCCCC(=O)Nc1cccc(CON=C(c2nnnn2C)C2CCCCC2)n1 [Compound 71]	4.25
Cn1nnnc1C(=NOCc1cccc(NC(=O)C2CC2)n1)C1CCCCC1 [Compound 73]	3.2
Cn1nnnc1C(=NOCc1cccc(NC(=O)C(F)(F)F)n1)C1CCCCC1 [Compound 76]	3.69
Cn1nnnc1C(=NOCc1nccc(N)n1)c1ccccc1 [Compound 77]	0.92
CCCCCC(=O)Nc1ccnc(CON=C(c2ccccc2)c2nnnn2C)n1 [Compound 78]	3.46
Cn1nnnc1C(=NOCc1nccc(NC(=O)C(C)(C)C)n1)c1ccccc1 [Compound 79]	3.06
Cn1nnnc1C(=NOCc1nccc(NC(=O)C2CC2)n1)c1ccccc1 [Compound 80]	2.5
CC(C)C(=O)Nc1ccnc(CON=C(c2ccccc2)c2nnnn2C)n1 [Compound 81]	2.68
CC(C)CC(=O)Nc1ccnc(CON=C(c2ccccc2)c2nnnn2C)n1 [Compound 82]	3

Same assay, conditions: reversed-phase C18 HPLC column

chromatographic logP	SMILES
3.46	Cc1nnnn1/C(=N/OCc1cccc(N2C(=O)c3ccccc3C2=O)n1)C1CCCCC1 [Compound 22, O-(2-Phtalimidopyridin-6-yl)methyl-(5-methyltetrazol-1-yl)-cyclohexylmethanone oxime]
1.43	Cc1nnnn1/C(=N/OCc1cccc(N)n1)C1CCCCC1 [Compound 23, O-(2-Aminopyridin-6-yl)methyl-(5-methyltetrazol-1-yl)-cyclohexylmethanone oxime]
4.39	CCCCCC(=O)Nc1cccc(CO/N=C(\C2CCCCC2)n2nnnc2C)n1 [Compound 27, O-(2-n-Pentylcarbonylaminopyridin-6-yl)methyl-(5-methyltetrazol-1-yl)-cyclohexylmethanone oxime]
